The values that follow come from ChEMBL document CHEMBL4376846, “Peptide-β-lactam Inhibitors of Dengue and West Nile Virus NS2B-NS3 Protease Display Two Distinct Binding Modes” (J Med Chem, 2020).

The source made the active and inactive calls. The rule behind the calls is not given here. Peptide text beside a SMILES is read from it. * marks the point of attachment. Bz = O=C(c1ccccc1)*

Data set [1] deals with Genome polyprotein (West Nile virus) (UniProt P06935). The data set is described as follows: Inhibition of West Nile virus NS2B-NS3 protease at 50 uM using 2-Abz-Nle-Lys-Arg-Arg-Ser-(3-NO2)-Tyr-NH2 FRET substrate preincubated for 15 mins followed by substrate addition measured after 15 mins by fluorimetric analysis relative to control.
The target of data set [2] is Genome polyprotein (dengue virus type 2) (UniProt P29990). The data set is described as follows: Inhibition of Dengue virus NS2B-NS3 protease at 50 uM using 2-Abz-Nle-Lys-Arg-Arg-Ser-(3-NO2)-Tyr-NH2 FRET substrate preincubated for 15 mins followed by substrate addition measured after 15 mins by fluorimetric analysis relative to control.
Data set [3] deals with T1, Genome polyprotein (dengue virus type 2, UniProt P29990). The data set is described as follows: Inhibition of Dengue virus NS2B-NS3 protease using 2-Abz-Nle-Lys-Arg-Arg-Ser-(3-NO2)-Tyr-NH2 FRET substrate preincubated for 15 mins followed by substrate addition measured after 15 mins by fluorimetric analysis.
Data set [4] has as its target Trypsin (Homo sapiens) (UniProt P07477+P07478+P35030). The experiment in a line: Inhibition of trypsin (unknown origin) at 50 uM using Boc-Val-Pro-Arg-AMC as substrate preincubated for 15 mins followed by substrate addition measured after 10 mins by fluorimetric analysis relative to control. Format: protein assay.
The target of data set [5] is Prothrombin (Homo sapiens) (UniProt P00734). The experiment in a line: Inhibition of thrombin (unknown origin) at 50 uM using Boc-Val-Pro-Arg-AMC as substrate preincubated for 15 mins followed by substrate addition measured after 10 mins by fluorimetric analysis relative to control.
Data set [6] addresses Genome polyprotein (dengue virus type 2) (UniProt P29990). The data set is described as follows: Binding affinity to Dengue virus NS2B-NS3 protease assessed as presence of lysine and benzyloxy-phenylglycine residues in active site.
Data set [7] shares this target. The data set is described as follows: Competitive inhibition of Dengue virus NS2B-NS3 protease assessed as increase in intrinsic fluorescence of tryptophan at active site at 20 to 60 uM measured after 5 mins in presence of quencher by tryptophan quenching assay.
Data set [8] deals with dengue virus type 2. The data set is described as follows: Binding affinity to Dengue virus serotype 2 […]-NS3 protease S135A mutant expressed in Escherichia coli BL21 lambda (DE3) cells assessed as effect on intrinsic fluorescence of tryptophan at active site at 20 to 60 uM measured after 5 mins in presence of quencher by tryptophan quenching assay.
In data set [9] the test system is Huh-7. The experiment in a line: Cytotoxicity against human HuH7 cells infected with Dengue virus serotype 2 assessed as effect on cell viability up to 50 uM after 48 hrs by Celltiter-blue assay. Format: cell-based. The conditions noted are these: huh-7, 48 h.
The target in data set [10] is Genome polyprotein (dengue virus type 2) (UniProt P29990). The data set is described as follows: Time dependent irreversible inhibition of Dengue virus NS2B-NS3 protease at 60 uM preincubated for 3 to 6 hrs followed by 2-Abz-Nle-Lys-Arg-Arg-Ser-(3-NO2)-Tyr-NH2 FRET substrate addition followed by further compound dilution to 1.7 uM and measured every 30 mins for 2 hrs by dilution experiment based fluorimetric analysis.

Data set [11] concerns the target T1, Genome polyprotein. The experiment in a line: Substrate activity at Dengue virus NS2B-NS3 protease assessed as time taken for peptide cleavage at 100 uM incubated for 11 hrs by HPLC-ESI/MS analysis. Format: ADME.
For data set [12], the target named is Genome polyprotein (dengue virus type 2) (UniProt P29990). The experiment in a line: Reversible inhibition of Dengue virus NS2B-NS3 protease assessed as increase in intrinsic fluorescence of tryptophan at active site at 60 uM pretreated for 16 hrs followed by quencher addition measured after 5 mins by tryptophan quenching assay.
The target is the same in data set [13]. The data set is described as follows: Reversible inhibition of Dengue virus NS2B-NS3 protease at 60 uM preincubated for 3 to 6 hrs followed by 2-Abz-Nle-Lys-Arg-Arg-Ser-(3-NO2)-Tyr-NH2 FRET substrate addition followed by further compound dilution to 1.7 uM and measured every 30 mins for 2 hrs by dilution experiment based fluorimetric analysis.
Data set [14] shares this target. The data set is described as follows: Competitive inhibition of Dengue virus NS2B-NS3 protease assessed as increase in intrinsic fluorescence of tryptophan at active site measured after 5 mins in presence of quencher by tryptophan quenching assay.
Data set [15] concerns dengue virus type 2. The experiment in a line: Antiviral activity against Dengue virus serotype 2 infected in HuH7 cells assessed as reduction in viral titer after 48 hrs by plaque assay. As to conditions: Huh-7, 48 h. Format: functional, organism-based.
For data set [16], the system named is dengue virus type 2. The data set is described as follows: Binding affinity to Dengue virus serotype 2 […]-NS3 protease S135A mutant expressed in Escherichia coli BL21 lambda (DE3) cells assessed as effect on intrinsic fluorescence of tryptophan at active site up to 20 uM by tryptophan quenching assay.
Data set [17] addresses Genome polyprotein (dengue virus type 2) (UniProt P29990). The data set is described as follows: Competitive inhibition of Dengue virus NS2B-NS3 protease assessed as increase in intrinsic fluorescence of tryptophan at active site up to 20 uM measured after 5 mins by tryptophan quenching assay.
Data set [18] addresses Genome polyprotein (West Nile virus, UniProt P06935). The data set is described as follows: Inhibition of West Nile virus NS2B-NS3 protease using 2-Abz-Nle-Lys-Arg-Arg-Ser-(3-NO2)-Tyr-NH2 FRET substrate preincubated for 15 mins followed by substrate addition measured after 15 mins by fluorimetric analysis.

With `N=C(N)NCCC[C@H](NC(=O)[C@H](CCCCN)NC(=O)c1ccccc1)C(=O)N[C@@H]1CN(c2ccccc2)C1=O`, the inhibition in data set [1] and in data set [2] was less than 20% throughout.

In turn, `N=C(N)NCCC[C@H](NC(=O)c1ccccc1)C(=O)N[C@@H](CCCCN)C(=O)N[C@@H](C(=O)N[C@@H]1CN(c2cccc(F)c2)C1=O)c1ccc(OCc2ccccc2)cc1` displayed a half-maximal inhibitory concentration (IC50) in data set [3] of 12.4 µM. Further, the inhibition in data set [1] is 61.6%; in data set [2], 80.8%; in [4], less than 20%; in data set [5], less than 20%.

Take `CCCC[C@H](NC(=O)[C@H](CCCCN)NC(=O)c1ccccc1)C(=O)N[C@@H]1CN(c2ccccc2)C1=O`: the inhibition in data set [1] is 24.4%; in data set [2], less than 20%; in data set [4] it was more than 20%.

`Cc1cccc(N2C[C@H](NC(=O)[C@H](NC(=O)[C@H](CCCCN)NC(=O)[C@H](CCCNC(=N)N)NC(=O)c3ccccc3)c3ccc(OCc4ccccc4)cc3)C2=O)c1` gave an IC50 in [3] of 2.8 µM. Moreover, the figures for the inhibition in data set [1] and in data set [2] were 46.8% and 96.5%, respectively.

For the compound `N=C(N)NCCC[C@H](NC(=O)c1ccccc1)C(=O)N[C@@H](CCCCN)C(=O)N[C@@H](C(=O)N[C@@H]1CN(c2ccc(F)cc2)C1=O)c1ccc(OCc2ccccc2)cc1`, the inhibition in data set [1] was 43.4%; in data set [2], 65.5%; in data set [4] it was less than 20%; in [5], less than 20%.

For the compound `N=C(N)NCCC[C@H](NC(=O)c1ccccc1)C(=O)N[C@@H](CCCCN)C(=O)O` (Bz-Arg-Lys-OH), the result in data set [6] was Active.

With `CCCC[C@H](NC(=O)[C@H](CCCCN)NC(=O)c1ccccc1)C(=O)N[C@H]1CN(c2ccccc2)C1=O`, the inhibition in data set [1] and in data set [2] was less than 20% throughout.

As for `N=C(N)NCCC[C@H](NC(=O)c1ccccc1)C(=O)N[C@@H](CCCCN)C(=O)N[C@@H](C(=O)N[C@H]1CN(c2ccccc2)C1=O)c1ccc(OCc2ccccc2)cc1`, it took 2.3 µM to reach half-maximal inhibition in data set [3] (IC50). Besides, the inhibition in data set [1] is 60.1%; in [2], 96%; in [14], “Dose-dependent effect”. Also, the inhibition result in [7] and in data set [12] was “Active” each time. For the same compound, the result in [8] was inactive. Further, the Activity entry in data set [9] is reported as “Non-Toxic”. In addition, the inhibition entry in data set [10] and in data set [13] was “inactive” throughout. Moreover, the Time in [11] is 14 h. In addition, in [15], the EC50 is 11.7 µM.

On to `N=C(N)NCCC[C@H](NC(=O)[C@H](CCCCN)NC(=O)c1ccccc1)C(=O)N[C@H]1CN(c2ccccc2)C1=O`, for which the inhibition in data set [1] and in data set [2] was less than 20% each time.

On to `COc1cccc(COc2ccc([C@@H](NC(=O)[C@H](CCCCN)NC(=O)[C@H](CCCNC(=N)N)NC(=O)c3ccc(-c4cccs4)s3)C(N)=O)cc2)c1`, for which the outcome in [16] was Active. The inhibition result in [17] was “Active”.

As to `N=C(N)NCCC[C@H](NC(=O)c1ccccc1)C(=O)N[C@@H](CCCCN)C(=O)N[C@H]1CN(c2ccccc2)C1=O`, the inhibition was determined as 81.4% in data set [1] and 57.1% in data set [2]. For the same compound, in data set [18], inhibition was half-maximal at 22.5 µM (IC50).

In [3], `N=C(N)NCCC[C@H](NC(=O)c1ccccc1)C(=O)N[C@@H](CCCCN)C(=O)N[C@@H]1CN(c2ccccc2)C1=O` came in with an IC50 of 17.7 µM. In addition, the inhibition in data set [1] was determined as 27.8%; in [2] it was 71.6%.

As for `NCCCC[C@H](NC(=O)c1ccccc1)C(=O)N[C@@H](CCCCN)C(=O)N[C@@H]1CN(c2ccccc2)C1=O`, the inhibition was 51.7% in data set [1], 39.7% in data set [2] and more than 20% in data set [4].

Consider `NCCCC[C@H](NC(=O)c1ccccc1)C(=O)N[C@@H](CCCCN)C(=O)N[C@H]1CN(c2ccccc2)C1=O`, for which the inhibition in [1] and in [2] was less than 20% throughout.

On to `N=C(N)NCCC[C@H](NC(=O)c1ccccc1)C(=O)N[C@@H](CCCCN)C(=O)N[C@@H](C(N)=O)c1ccc(OCc2ccccc2)cc1`, for which, in data set [11], the Time turned out to be 7 h.

As to `N=C(N)NCCC[C@H](NC(=O)c1ccccc1)C(=O)N[C@@H](CCCCN)C(=O)N[C@@H](C(=O)N[C@H]1CN(c2ccc(F)cc2)C1=O)c1ccc(OCc2ccccc2)cc1`, in [3], half-maximal inhibition (IC50) was put at 2.5 µM. Moreover, the inhibition in data set [1] is 60.9%; in data set [2], 96.3%. The Activity entry in data set [9] was “Non-Toxic”. For the same compound, the EC50 in [15] came out at 4.1 µM.

Consider `N=C(N)NCCC[C@H](NC(=O)c1ccccc1)C(=O)N[C@@H](CCCCN)C(=O)N[C@@H](C(=O)N[C@@H]1CN(c2ccccc2)C1=O)c1ccc(OCc2ccccc2)cc1`, for which the inhibition is 46.9% in [1], 68.8% in data set [2], less than 20% in data set [4] and less than 20% in data set [5].

For `Cc1ccc(N2C[C@@H](NC(=O)[C@H](NC(=O)[C@H](CCCCN)NC(=O)[C@H](CCCNC(=N)N)NC(=O)c3ccccc3)c3ccc(OCc4ccccc4)cc3)C2=O)cc1`, in data set [3], the IC50 turned out to be 15.9 µM. The inhibition is 52.9% in [1], 73.5% in [2], less than 20% in data set [4] and less than 20% in data set [5].

Regarding `Cc1ccc(N2C[C@H](NC(=O)[C@H](NC(=O)[C@H](CCCCN)NC(=O)[C@H](CCCNC(=N)N)NC(=O)c3ccccc3)c3ccc(OCc4ccccc4)cc3)C2=O)cc1`, the IC50 in [3] turned out to be 2.7 µM. For the same compound, the inhibition came to 60.3% in data set [1] and 95.9% in data set [2].

`CCCC[C@H](NC(=O)[C@H](CCCNC(=N)N)NC(=O)c1ccccc1)C(=O)N[C@@H]1CN(c2ccccc2)C1=O`: the inhibition in data set [1] and in [2] was less than 20% each time.

Take `N=C(N)NCCC[C@H](NC(=O)c1ccccc1)C(=O)N[C@@H](CCCCN)C(=O)N[C@@H](C(=O)N[C@H]1CN(c2cccc(F)c2)C1=O)c1ccc(OCc2ccccc2)cc1`: in data set [3], the midpoint of inhibition, the IC50, lay at 1.9 µM. In addition, the inhibition in [1] was found to be 64.1%; in [2] it was 96.8%.

In the case of `CCCC[C@H](NC(=O)[C@H](CCCNC(=N)N)NC(=O)c1ccccc1)C(=O)N[C@H]1CN(c2ccccc2)C1=O`, the inhibition is less than 20% in data set [1], less than 20% in data set [2] and more than 20% in data set [4].

With `N[C@@H](C(=O)N[C@H]1CN(c2ccccc2)C1=O)c1ccc(OCc2ccccc2)cc1`, the result in data set [6] was Active.

Take `Cc1cccc(N2C[C@@H](NC(=O)[C@H](NC(=O)[C@H](CCCCN)NC(=O)[C@H](CCCNC(=N)N)NC(=O)c3ccccc3)c3ccc(OCc4ccccc4)cc3)C2=O)c1`: it took 16.4 µM to reach half-maximal inhibition in data set [3] (IC50). Besides, the inhibition in data set [1] was 45.1%; in data set [2], 77.7%; in data set [4], less than 20%; in data set [5] it was less than 20%.
